# Experimental data reported in patent US7935525B2, “Inhibition of ATF2 activity to treat cancer” (Mount Sinai School of Medicine, priority 2001, dated 2011).
# No end group written: not given here.
# Legend:
# [1] = system: Adriamycin-resistant MCF7 cell line (MCF7-Adr); test: Apoptosis by FACS (hypodiploid fraction); type: cell-based, human; conditions: peptide-expressing MCF7-Adr; neo controls 3-fold; 36 h
# Procedure: [Worded in the source for another cell line; this cell line is reported under the same test.] (§1) Treatment and apoptosis studies of stably transfected melanoma cells. Cells were exposed to UVC at 75 J/m^2 as previously described (Ronai, Z., et al., Oncogene 1998; 16:523-531). SB203580 (1-10 μM) (Calbiochem®, San Diego, Calif.), NCS (50-100 ng/ml) and mitomycin C (MMC) (0.2-1 μM) were used to treat melanoma cells. Flow cytometric analysis was performed on a FACSCalibur™ flow cytometer (Becton Dickinson) using CellQuest™ software as described previously (Nicoletti et al., J. Immunol. Methods 1991; 139:271-279). Cells were pelleted and resuspended in 0.5 ml of hypotonic buffer with 0.1% Triton X-100 containing PI (40 μg/ml) and DNase-free RNase A (1 mg/ml). Cells were incubated at 37° C. for 30 min and analyzed on a FACSCalibur™ flow cytometer (Becton Dickinson). The percentage of cells to the left of the diploid G0/1 peak, characteristic of hypodiploid cells that have lost DNA, was defined as the percentage of apoptotic cells. Analysis was performed with light scatter gating. Surface expression of Fas was determined using anti-Fas-PE antibody (PharMingen® CA) and flow cytometric analysis. Cell surface expression is measured as mean fluorescence intensity (MFI).
# FEMX cells = test: Apoptosis by FACS (hypodiploid fraction); type: cell-based, human
# Procedure: as §1
# [2] = system: MCF7 breast cancer-derived cell line; test: Apoptosis by FACS (hypodiploid fraction); type: cell-based, human; conditions: peptide-expressing MCF7
# Procedure: [Worded in the source for another cell line; this cell line is reported under the same test.] as §1
# [3] = system: WM1552 early-phase melanoma cell line; test: Apoptosis by FACS (hypodiploid fraction); type: cell-based, human; conditions: peptide-expressing WM1552; UV-C 75 J/m2; 36 h
# Procedure: as §1
# FEMX tumor cells = test: Growth of transplanted FEMX tumors in mice; type: in vivo
# Procedure: Tumor growth and metastasis evaluation in vivo. Cell lines established in culture to constitutively or inducibly express the peptide were injected into mice subcutaneously (S.C.). LU1205, FEMX and SW-1 cells that expressed control or peptide II were trypsinized, resuspended in PBS and injected SC (1×10^6) into 6-7 week old mice in the lower flank. When the tumor reached the size of about 50 mm^3, 5 μM of SB203580 was injected into four areas of the LU1205 tumors every 4 days during a 2-week period. For FEMX tumors UCN-01 (2.5 mg/kg) was fed by gavage twice a day, three times per week for a total of 2 weeks. Tumor growth was monitored every two days. SW-1 cells expressing peptide II under tet-inducible vector were injected SC (1×10^6). When tumors reached a size of about 50 mm^3, the mice received doxycycline in their drinking water ([…]) for a total of 2-4 weeks. At the end of the experiment, the tumors were excised and weighed. The lungs and other organs were subjected to histopathological examination to detect metastatic lesions.
# SW1 tumors = test: Doxycycline-inducible peptide expression in existing SW1 tumors; type: in vivo, C3H mice
# From the text: Constructs. ATF2 peptides were cloned into HA-penetratin pcDNA3 vector as described above. For the doxycycline inducible system peptide II was cloned in frame with HA and Penetratin into SacII and XbaI sites of the PUHD10-3 vector (Gossen M., et al., Proc. Natl. Acad. Sci. USA. 1992, 89(12):5547-51). The PeF1PrtTA vector (Gopalkrishnan R. V., et al., Nucleic Acids Res. 1999; 27(24):4775-82) places the rtTA gene under transcriptional control of the human EF-10 promoter. Replication deficient adenovirus expressing peptide II was generated by subcloning the ATF2 peptide cDNA into the corresponding adenovirus vector as previously described (Chen S. H., et al., Proc. Natl. Acad. Sci. USA 1994; 91(8):3054-7).
# Derivation of stable cell lines. Selection of clones stably expressing the rtTA construct was carried out in SW-1 cells in the presence of […] of G418. After the selection period 12 single colonies were picked, expanded and analyzed for activity by assaying for Luciferase activity (Gopalkrishnan R. V., et al., Nucleic Acids Res. 1999; 27(24):4775-82). […] The positive clone, which expresses the rtTA cDNA, was contransfected with PUHDI0-3 peptide II and Pbabe Puro vectors that allow one to establish inducible expression of the respective genes (Gopalkrishnan et al., supra) and single clones were selected with […] of Puromycin. Positive clones were selected by Western blotting.
# Tumor growth and metastasis evaluation in vivo. Cell lines established in culture to constitutively or inducibly express the peptide were injected into mice subcutaneously (S.C.). LU1205, FEMX and SW-1 cells that expressed control or peptide II were trypsinized, resuspended in PBS and injected SC (1×10^6) into 6-7 week old mice in the lower flank. When the tumor reached the size of about 50 mm^3, 5 μM of SB203580 was injected into four areas of the LU1205 tumors every 4 days during a 2-week period. For FEMX tumors UCN-01 (2.5 mg/kg) was fed by gavage twice a day, three times per week for a total of 2 weeks. Tumor growth was monitored every two days. […]
# FAS = test: Cell surface FAS receptor by FACS in SW1 cells; type: cell-based, mouse; conditions: peptide-expressing SW1 vs control
# Procedure: Electrophoretic mobility shift assays were performed as described. (Ivanov and Ronada, J Biol Chem 1999; 274(20):14079-89). GST binding assays were performed with GST-peptide II as described (Adler et al., Proc Natl Acad Sci USA 1995; 92 10585-9). SW1 cells expressing control vector or peptide II were subjected to FACS analysis following their incubation with antibodies to the cell surface receptor of FAS as described above.
substance,measurement,setting,value
"peptide II: N-terminal polypeptide fragment of ATF2, amino acid residues 50-100, expressed from pcDNA3 with HA-penetratin tag (EMTLKFGPARNDSVIVADQTPTPTRFLKNCEEVGLFNELASPFENEFKKAS; also: HA-penetratin tag, position not given here; UniProt P15336 50-100, looked up, fragment)",increase in apoptosis following UV-treatment,[1],8 fold
same,increase in the degree of UCN-01-elicited apoptosis,FEMX cells; peptide-expressing FEMX vs parent,> 3 fold
same,apoptotic fraction of UV-treated cells,"FEMX cells; peptide-expressing FEMX, UV-C 75 J/m2, 36 h, neo control 13%",28%
same,increase in sensitivity to UCN-01 elicited apoptosis,[2],~2 fold
same,increase in degree of apoptosis following UV-treatment relative to non-irradiated cells,"[2]; neo control 4-fold, 36 h",~9 fold
same,effect on the basal level of apoptosis,[2]; no treatment,minimal effect
same,sensitization to UV-induced apoptosis,[3],no longer was able to elicit sensitization
same,tumor growth,FEMX tumor cells; co-treatment: peptide-expressing FEMX + UCN-01,tumor regression
same,tumor cell growth,"FEMX tumor cells; single agent: UCN-01 by gavage, or peptide expressed in tumor cells",grew much more slowly
same,decrease in the growth rate of tumors,"SW1 tumors; doxycycline in drinking water from 90 mm^3, 32 days",~2 fold
same,reduction of tumor growth rate,SW1 tumors; inducible expression via doxycycline,50%
same,degree of apoptosis in tumors (tunnel assay),SW1 tumors; tumors from doxycycline-fed mice,increase in degree of apoptosis
same,level of FAS on the cells,FAS,greatly increased
